The source of these data is paper PMC10399917 (Journal of Molecular Cell Biology, 2023).

Assay [1] deals with TMPRSS2–SPIKE interaction (His-TMPRSS2 and SPIKE-FLAG) (Severe acute respiratory syndrome coronavirus 2, UniProt P0DTC2). Briefly: biochemical. In kind it is binding, SARS-CoV-2.
Assay [2] deals with TMPRSS2–SPIKE interaction (SmBiT-TMPRSS2 and SPIKE-LgBiT) (Severe acute respiratory syndrome coronavirus 2, UniProt P0DTC2). In kind it is cell-based, SARS-CoV-2.
In another assay the test system is SPIKE protein. Conditions: ref Feng et al., 2020; cited from earlier work.

Values joined by “and” are separate entries in the source; they are usually repeats but may differ in a detail not shown here. Identical values can stand only once. Like-named read-outs stand apart in the source and are kept apart here.

The IC50 is the concentration at which inhibition is half-maximal.

In turn, `O=C(/C=C/c1ccc(O)c(O)c1)OCCc1ccccc1` [CAPE, caffeic acid phenethyl ester] showed an IC50 in assay [1] (IC50, TR-FRET signal) of 13.8 µM. For the same molecule, the “Inhibition of NanoBiT signal” value in assay [2] is “dose-dependent inhibition”.

Regarding `N#C/C(=C/c1ccc(O)c(O)c1)C(=O)NCc1ccccc1` [AG-490], in assay [1] (read-out: IC50, TR-FRET signal), the IC50 is about 19 µM.

Turning to `CC1=NN(c2ccc(C)c(C)c2)C(=O)/C1=N\Nc1cccc(-c2cccc(C(=O)O)c2)c1O` [eltrombopag olamine], the IC50 in assay [1] (IC50, TR-FRET signal) is ~20 µM and 20.6 µM. For the same molecule, the “Binding to the SPIKE protein” value in the assay on SPIKE protein is “bind to the SPIKE protein”.

Consider `CC(C)c1onc(-c2c(Cl)cccc2Cl)c1COc1ccc(/C=C/c2cccc(C(=O)O)c2)c(Cl)c1` [GW4064], for which the IC50 in assay [1] (read-out: IC50, TR-FRET signal) was about 7 µM.

For the molecule `Cc1cc(C(C#N)c2ccc(Cl)cc2)c(Cl)cc1NC(=O)c1cc(I)cc(I)c1O` (stereo not drawn) [closantel], in assay [1] (IC50, TR-FRET signal), the IC50 was about 17 µM.

Take `Cc1cc2c(C(C)C)c(O)c(O)c(C=O)c2c(O)c1-c1c(C)cc2c(C(C)C)c(O)c(O)c(C=O)c2c1O` [gossypol acetate]: half-maximal inhibition in assay [1] (IC50, TR-FRET signal) (IC50) was put at 0.69 µM. Further, in assay [2], the “Inhibition of NanoBiT signal” value is listed as “dose-dependent inhibition”.
